Reference: the CheMixHub viscosity set

Test: xn = mol fraction of the nth substance listed

CCCCN + CCCCCCCO
viscosity [mPa·s], 101.33 kPa
Details | 303.15 K | 313.15 K | 323.15 K
x1 = 0.0997 | 4.157 | 3.079 | 2.366
x1 = 0.122 | 3.964 | 2.931 | –
x1 = 0.1998 | 3.439 | 2.557 | –
x1 = 0.201 | 3.328 | 2.535 | 1.993
x1 = 0.2914 | 2.866 | 2.134 | –
x1 = 0.3 | 2.671 | 2.069 | 1.627
x1 = 0.4035 | 2.125 | 1.684 | 1.346
x1 = 0.4133 | 2.169 | 1.636 | –
x1 = 0.4897 | 1.797 | 1.363 | –
x1 = 0.5 | 1.669 | 1.336 | 1.094
x1 = 0.6006 | 1.294 | 1.056 | 0.879
x1 = 0.6172 | 1.284 | 0.9879 | –
x1 = 0.7002 | 0.975 | 0.797 | 0.676
x1 = 0.7147 | 0.9851 | 0.7769 | –
x1 = 0.8001 | 0.77 | 0.655 | 0.563
x1 = 0.8091 | 0.761 | 0.6198 | –
x1 = 0.8999 | 0.606 | 0.518 | 0.451
x1 = 0.907 | 0.5793 | 0.4903 | –

CCCC(=O)OCC(COC(=O)CCC)OC(=O)CCC + CCCCCCO
viscosity [mPa·s], 101.33 kPa
Details | x1 = 0.1 | x1 = 0.2 | x1 = 0.3 | x1 = 0.4 | x1 = 0.5 | x1 = 0.6 | x1 = 0.7 | x1 = 0.8 | x1 = 0.9
298 K | 4 | 4.09 | 4.3 | 4.65 | 5.05 | 5.56 | 6.15 | 6.84 | 7.68
303 K | 3.47 | 3.54 | 3.72 | 4 | 4.36 | 4.8 | 5.27 | 5.86 | 6.54
308 K | 3.02 | 3.08 | 3.26 | 3.49 | 3.79 | 4.15 | 4.57 | 5.07 | 5.63
313 K | 2.65 | 2.71 | 2.85 | 3.07 | 3.33 | 3.64 | 4 | 4.42 | 4.9

CCCCN + CCCCCCO
viscosity [mPa·s], 101.33 kPa
Details | 303.15 K | 313.15 K | 323.15 K
x1 = 0.099 | 3.27 | 2.673 | –
x1 = 0.1002 | 3.164 | 2.411 | 1.888
x1 = 0.2005 | 2.593 | 2.026 | 1.608
x1 = 0.2079 | 2.728 | 2.202 | –
x1 = 0.2888 | 2.334 | 1.906 | –
x1 = 0.3001 | 2.082 | 1.642 | 1.322
x1 = 0.4004 | 1.701 | 1.356 | 1.113
x1 = 0.414 | 1.79 | 1.47 | –
x1 = 0.5002 | 1.371 | 1.12 | 0.923
x1 = 0.5223 | 1.39 | 1.161 | –
x1 = 0.5987 | 1.155 | 0.9887 | –
x1 = 0.6001 | 1.105 | 0.909 | 0.765
x1 = 0.6999 | 0.906 | 0.759 | 0.648
x1 = 0.7197 | 0.8668 | 0.754 | –
x1 = 0.8001 | 0.729 | 0.622 | 0.537
x1 = 0.8124 | 0.6995 | 0.611 | –
x1 = 0.8998 | 0.573 | 0.494 | 0.433
x1 = 0.9046 | 0.5625 | 0.4944 | –

CCCCCCCCCC(=O)OCC + CCCCCO
viscosity [mPa·s], 100 kPa
Details | x1 = 0.1005 | x1 = 0.201 | x1 = 0.3 | x1 = 0.4 | x1 = 0.498 | x1 = 0.5999 | x1 = 0.7009 | x1 = 0.7997 | x1 = 0.8996
293.15 K | 3.246 | 2.808 | 2.563 | 2.417 | 2.33 | 2.29 | 2.258 | 2.259 | 2.289
298.15 K | 2.839 | 2.481 | 2.277 | 2.156 | 2.086 | 2.052 | 2.031 | 2.036 | 2.061
303.15 K | 2.493 | 2.202 | 2.036 | 1.943 | 1.878 | 1.852 | 1.834 | 1.842 | 1.866
308.15 K | 2.218 | 1.965 | 1.827 | 1.744 | 1.698 | 1.683 | 1.668 | 1.676 | 1.702
313.15 K | 1.966 | 1.762 | 1.648 | 1.581 | 1.543 | 1.529 | 1.522 | 1.536 | 1.558
318.15 K | 1.823 | 1.586 | 1.492 | 1.438 | 1.408 | 1.396 | 1.396 | 1.408 | 1.432

CCCCN + CCCCCO
viscosity [mPa·s], 101.33 kPa
Details | 303.15 K | 313.15 K | 323.15 K
x1 = 0.097 | 2.5 | 2.042 | –
x1 = 0.102 | 2.52 | 1.956 | 1.551
x1 = 0.1887 | 2.182 | 1.761 | –
x1 = 0.2002 | 2.086 | 1.639 | 1.322
x1 = 0.2883 | 1.842 | 1.49 | –
x1 = 0.2994 | 1.72 | 1.381 | 1.122
x1 = 0.388 | 1.53 | 1.264 | –
x1 = 0.4012 | 1.431 | 1.162 | 0.957
x1 = 0.5 | 1.19 | 0.976 | 0.816
x1 = 0.5146 | 1.18 | 0.9969 | –
x1 = 0.6008 | 0.996 | 0.829 | 0.697
x1 = 0.6173 | 0.9476 | 0.8283 | –
x1 = 0.6995 | 0.819 | 0.693 | 0.592
x1 = 0.7066 | 0.7962 | 0.6999 | –
x1 = 0.8002 | 0.68 | 0.583 | 0.505
x1 = 0.8075 | 0.6516 | 0.5757 | –
x1 = 0.8845 | 0.559 | 0.4945 | –
x1 = 0.8997 | 0.574 | 0.498 | 0.435

O=C(O)C(Cl)(Cl)Cl + CCCCCOC(C)=O
323.15 K, 101 kPa
Details | viscosity [mPa·s]
x2 = 0.2135 | 3.573
x2 = 0.4325 | 2.146
x2 = 0.6234 | 1.358
x2 = 0.8421 | 0.807

O=[N+]([O-])c1ccc(O)cc1 + CCCCCOC(C)=O
Details | viscosity [mPa·s]
298.15 K, 101 kPa, x1 = 0.5 | 1.564

CCCCN + CCCCN(CCCC)CCCC
viscosity [mPa·s], 101 kPa
Details | x2 = 0.0993 | x2 = 0.193 | x2 = 0.3946 | x2 = 0.4948 | x2 = 0.5888 | x2 = 0.7738 | x2 = 0.8887
303.15 K | 0.5014 | 0.566 | 0.7175 | 0.7961 | 0.8701 | 1.013 | 1.094
313.15 K | 0.4423 | 0.4968 | 0.6233 | 0.688 | 0.7498 | 0.8682 | 0.9377
